Test results: patent publication US12291536B2, “Crystal form of Wee1 inhibitor compound and use thereof” (Wuxi Biocity Biopharmaceutics Co., Ltd., priority 2019, dated 2025)
Blank lines part the entries; values can stand above or below the compound they belong to.

Assays:
Wee1 = molecular target: T1, Wee1 (Homo sapiens, UniProt P30291); test: In vitro enzymatic inhibitory activity (Eurofins, [γ-33P]-ATP filter assay); format: biochemical; settings: 10 μM ATP, 40 min, room temperature
T1 construct: purchased Eurofins
T1 sequence (P30291 whole entry): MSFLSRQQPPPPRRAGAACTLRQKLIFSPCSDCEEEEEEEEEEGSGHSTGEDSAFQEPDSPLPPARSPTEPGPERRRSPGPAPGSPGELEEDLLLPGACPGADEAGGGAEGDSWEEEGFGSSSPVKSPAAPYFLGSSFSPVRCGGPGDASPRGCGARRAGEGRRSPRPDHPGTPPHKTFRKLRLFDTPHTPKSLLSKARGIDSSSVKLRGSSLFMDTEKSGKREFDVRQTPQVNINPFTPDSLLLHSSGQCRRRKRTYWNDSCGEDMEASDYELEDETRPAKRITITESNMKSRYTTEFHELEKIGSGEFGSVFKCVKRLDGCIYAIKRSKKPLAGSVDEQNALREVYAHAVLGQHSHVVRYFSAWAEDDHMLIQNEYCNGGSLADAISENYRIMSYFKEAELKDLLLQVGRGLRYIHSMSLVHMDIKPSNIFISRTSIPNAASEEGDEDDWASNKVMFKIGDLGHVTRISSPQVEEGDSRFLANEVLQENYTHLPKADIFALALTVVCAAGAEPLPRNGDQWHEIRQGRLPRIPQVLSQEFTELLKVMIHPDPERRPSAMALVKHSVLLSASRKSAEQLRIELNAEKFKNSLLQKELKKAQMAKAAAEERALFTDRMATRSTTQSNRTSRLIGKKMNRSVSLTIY
Protocol: The experimental test was carried out in Eurofins, and the experimental results were provided by the company.
Into the test system were added 20 mM Tris-HCl, pH 8.5, 0.2 mM EDTA, 500 μM polypeptide substrate ([sequence]), 10 mM magnesium acetate and 10 μM [γ-^33P]-ATP (intensity of about 500 cpm/pmol). After addition of Mg^2+ and ATP mixture, the reaction was initiated and incubated at room temperature for 40 min. 3% phosphate buffer was added to stop the reaction.
10 μL of reaction solution was taken and filtered on a continuous filter P30, and washed three times with 75 mM phosphate buffer, once with methanol, each washing for 5 min. After drying, the values were read by scintillation counting method.

P-gp (MDR1) = test: In vitro permeability test in MDR1-MDCK II cells; format: in vitro ADME, canine; settings: dog
Excerpt: (§1) MDR1-MDCK II cell authorized by the Piet Borst Laboratory of the Netherlands Cancer Institute was used in the study, the cell is a Madin-Darby canine kidney cell transfected with the human multi-drug resistance gene (MDR1), which can stably express efflux transporter P glycoprotein (P-gp) and therefore is suitable for screening P-gp substrate or inhibitor, and for predicting the permeability of compounds with high efflux barriers such as duodenum, blood-brain barrier, […], and kidney unit. MDR1-MDCK II cells of from passage 5-35 were used for permeability study.
(§2) MDR1-MDCK II cells were cultured with α-MEM medium (α-Minimum Essential Media) under culture condition of 37±1° C., 5% CO2 and saturated relative humidity. Then, the cells were seeded in a BD Transwell-96 well plate at a seeding density of 2.3×10^5 cells/cm^2, and then the cells were cultured in a carbon dioxide incubator for 4-7 days for transport experiment. The preparation method of its α-MEM medium was as follows:
(§3) The liquid nutrient base was prepared with powder (α-MEM powder from Gibco, Cat #:11900) dissolved in pure water, and was added with L- (L-glutamine) and NaHCO3. Then 10% FBS (fetal bovine serum), 1% PS (double antibody) and 1% NEAA were added upon use to make a complete medium. […]
(§4) After all samples were vortexed and centrifuged at 3220 g for 10 min, an appropriate volume of supernatant was transferred to the sample analysis plate. After the plate was sealed, the sample should be stored at 2-8° C. if it was not analyzed immediately, using the LC-MS/MS method for analysis.
(§5) After the transport experiment was over, the integrity of the MDR1-MDCK II cells was tested by the Lucifer Yellow Rejection Assay. After 30 min of incubation with the Lucifer Yellow solution, the Lucifer Yellow sample was collected, and the 2e plate reader set at 425/528 nm (Excitation/Emission) was used to detect the relative fluorescence intensity (RFU) of fluorescent yellow in the sample.

P-gp (human MDR1) = test: In vitro permeability test in MDR1-MDCK II cells; format: in vitro ADME, canine; settings: dog
Excerpt: as §1, §2, §3, §4, §5

[1] = Pharmacokinetic evaluation after single intravenous and single oral administration; format: in vivo, female Balb/c Nude mice; settings: female, Balb/c Nude; for AUC(0-t): read-out: Area under the drug-time curve AUC0-last; for half-life: read-out: Half-life T1/2 (converted)
Protocol: Twelve mice (provided by Lingchang) were randomly divided into two groups, 6 females in each group, and samples were collected by cross-blood sampling.
In the intravenous group, plasma samples were collected at 9 time points: 5 min, 15 min, 30 min, 1 h, 2 h, 4 h, 6 h, 8 h, and 24 h after the administration. In the oral group, plasma samples were collected at 8 time points: 15 min, 30 min, 1 h, 2 h, 4 h, 6 h, 8 h and 24 h after the administration.

[2] = tested on: human colon cancer LoVo cell subcutaneous xenograft tumor; test: In vivo pharmacodynamic study, human colon cancer LoVo cell subcutaneous xenograft tumor model; set-up: species or system BALB/c nude mice; settings: gavage 40 mg/kg twice a day, 16 days
Protocol: Experimental method: The selected experimental animals (provided by Shanghai SIPPR-BK Experimental Animal Co., Ltd.) were BALB/c nude mice, 6-8 weeks, weighing 18-22 g.
Human colon cancer LoVo cells were cultured in monolayer in vitro, and culture conditions were Ham's F-12 medium with 10% fetal bovine serum, 100 U/mL penicillin, 100 μg/mL streptomycin and 2 mM glutamine, 37° C., 5% CO2. Trypsin-EDTA was used for routine digestion and passage, twice a week. When the cell saturation is 80%-90%, the cells were collected, counted, and inoculated. 0.1 mL (10×10^6 cells) of LoVo cells were subcutaneously inoculated on the right back of each nude mouse, and group administration was initiated when the average tumor volume reached 213 mm^3. Dosage for gavage administration was 40 mg/kg, twice a day. The experimental index was to investigate whether the tumor growth was inhibited, alleviated or cured. The diameters of the tumors were measured with a vernier caliper twice a week. The calculation formula for the tumor volume was V=0.5a×b^2, where a and b represent the long diameter and short diameter of the tumor, respectively.
The anti-tumor efficacy of the compound was evaluated by TGI (%) or the relative tumor growth rate T/C (%). TGI (%) reflects the tumor growth inhibition rate. […]

[3] = tested on: human pancreatic cancer BxPC-3 cell xenograft tumor; test: In vivo pharmacodynamic study, human pancreatic cancer BxPC-3 subcutaneously transplanted tumor model; set-up: species or system BALB/c nude mice; settings: BxPC-3 xenograft, gavage 25 mg/Kg once a day, 27 days
Protocol: Experimental procedure: The selected experimental animals were BALB/c nude mice, 6-8 weeks, weighing 18-22 g.
The 10th generation of BxPC-3 cells were cultured in monolayer in vitro, and the culture conditions were RPMI 1640 medium (Manufacturer: Gibco, Catalog: 22400-089) with 10% fetal bovine serum, 100 U/mL penicillin and 100 μg/mL Streptomycin, 37° C., 5% CO2, 4 passages. The passage method was twice a week with trypsin-EDTA for routine digestion and passage. When the cell saturation reached 80%-90%, the cells were digested with trypsin-EDTA, counted, and resuspended in PBS at a density of 5×10^7 cells/mL. Each animal was inoculated with 0.1 mL (5×10^6 cells) of BxPC-3 cells on the right back. When the average tumor volume reached 153 mm^3, they were randomly grouped according to the tumor volume and administration was started. Gavage dosage: 25 mg/Kg, once a day.
(§6) The experimental index was to investigate whether the tumor growth was inhibited, alleviated or cured. The diameters of the tumors were measured with a vernier caliper twice a week. The anti-tumor efficacy of the compound was evaluated by TGI (%) or the relative tumor growth rate T/C (%). TGI (%) reflects the tumor growth inhibition rate. […]

[4] = tested on: mouse colon cancer CT26 cell allograft tumor; test: In vivo anti-tumor efficacy, CT26 mouse colon cancer cell transplanted tumor model; set-up: species or system BALB/c nude mice; settings: gavage 30 mg/kg twice a day, 18 days
Protocol: Experimental procedure: The selected experimental animals were BALB/c nude mice, 7 weeks, weighing 16-20 g, female.
Cells: Mouse colon cancer CT26 cells (Cell Bank of Type Culture Collection Committee of Chinese Academy of Sciences) were cultured in monolayer in vitro, and culture condition was RPMI-1640 medium containing 10% fetal bovine serum, in 37° C., 5% CO2 incubator. Trypsin-EDTA was used for routine digestion and passage. When the cells were in the exponential growth phase and the saturation was 80%-90%, the cells were collected, counted, and inoculated. 0.1 mL of DPBS (containing 3×10^5 CT26 cells) was subcutaneously inoculated on the right back of each mouse. When the average tumor volume reached 50-70 mm^3, randomized administration was carried out according to the tumor volume. Gavage dosage: 30 mg/kg, twice a day.
as §6

[5] = Solid stability test of Crystal Form F under high temperature, high humidity, illumination and accelerated conditions; format: physicochemical
Protocol: According to influencing factors and accelerated test conditions, about 5 mg of Crystal Form F of the Compound of Formula (I) was weighed precisely and placed in a dry and clean glass bottle, in duplicate, and spread into a thin layer, as the formal test sample, placed under the influencing factors test conditions (60° C., 92.5% RH (relative humidity)) and accelerated conditions (40° C./75% RH and 60° C./75% RH), with the samples fully exposed. The test system was covered with an aluminum foil paper with small holes. In addition, a small amount of samples were taken and placed in a 40 mL glass sample bottle under the same conditions to determine the crystal state. Sampling and analysis were performed on day 5 days, 10 days, and one month. The samples placed under Illumination (visible light 1200000 Lux, UV 200 W) conditions were fully exposed at room temperature.

[6] = po, Administration by gavage, 10 mg/kg, mouse plasma
[7] = Intravenous administration, 1 mg/kg, mouse plasma
[8] = Illumination (visible light 1200000 Lux, UV 200 W), room temperature

- IC50 (Wee1): 29 nM
- Papp A→B at 150 min, 2 μM (P-gp (MDR1); read-out: Penetration rate A to B): 45.5 nm/s
- Papp B→A at 150 min, 2 μM (P-gp (MDR1); read-out: Penetration rate B to A): 174 nm/s
- efflux ratio at 150 min, 2 μM (P-gp (human MDR1)): 3.82
- bioavailability ([1]; mouse, plasma, po, Administration by gavage, 10 mg/kg, read-out: Bioavailability F (%)): 62.4%
- AUC(0-t) [1, 6]: 6.04 µM·h
- clearance ([1]; Intravenous administration, 1 mg/kg, mouse plasma, read-out: Clearance rate): 2.01 L/h/kg
- half-life [1, 7]: 101 min
Compound: CN1CCN(c2ccc(Nc3ncc4c(=O)n5n(c4n3)-c3cccc(n3)[C@](C)(O)CC/C=C\C5)cc2)CC1 (single isomer, unassigned) [Compound of Formula (I)]
- TGI (%) [2]: 84.74%
- TGI (%) [3]: 73.3%
- TGI (%) [4]: 93.38%

- AUC(0-t) [1, 6]: 1.2 µM·h
- half-life [1, 7]: 15.1 min
Compound: C=CCn1c(=O)c2cnc(Nc3ccc(N4CCN(C)CC4)cc3)nc2n1-c1cccc(C(C)(C)O)n1 [AZD1775, reference compound]
- TGI (%) [2]: 26.73%
- TGI (%) [3]: 24.3%
- TGI (%) [4]: 66.43%

- Content % ([5]; 0 day): 99.38%
- Total impurity % ([5]; 0 day): 0.63%
- Content % ([5]; 40° C.-75% humidity, 1 month): 97.94%
- Total impurity % ([5]; 40° C.-75% humidity, 1 month): 0.62%
- Content % ([5]; 40° C.-75% humidity, 10 day): 98.01%
- Total impurity % ([5]; 40° C.-75% humidity, 10 day): 0.63%
- Content % ([5]; 60° C., 5 days): 99.39%
- Total impurity % ([5]; 60° C., 5 days): 0.74%
- Content % ([5]; 60° C., 10 days): 99.98%
- Total impurity % ([5]; 60° C., 10 days): 0.84%
- Content % ([5]; 60° C.-75% humidity, 1 month): 99.46%
- Total impurity % ([5]; 60° C.-75% humidity, 1 month): 0.75%
- Content % ([5]; 60° C.-75% humidity, 10 day): 100.43%
- Total impurity % ([5]; 60° C.-75% humidity, 10 day): 0.69%
- Content % ([5]; 92.5% humidity, 5 days): 98.72%
- Total impurity % ([5]; 92.5% humidity, 5 days): 0.61%
- Content % ([5]; 92.5% humidity, 10 days): 98.38%
- Total impurity % ([5]; 92.5% humidity, 10 days): 0.64%
- Content % [5, 8]: 98.58%
- Total impurity % [5, 8]: 0.67%
- Content % ([5]; Protection from light): 97.77%
- Total impurity % ([5]; Protection from light): 0.61%
- Crystal form change (physical stability) ([5]; one-month solid influencing factor and accelerated test): did not change
Compound: CN1CCN(c2ccc(Nc3ncc4c(=O)n5n(c4n3)-c3cccc(n3)[C@](C)(O)CC/C=C\C5)cc2)CC1 [Crystal Form F]
